Patent US20090263410A1, “USE OF TGF-B1 INHIBITOR PEPTIDES IN THE PREPARATION OF AN IMMUNE RESPONSE MODULATING AGENT” (Proyecto De Biomedicina Cima, S.L., priority 2005, published 2009)
“Also recorded” adds a separate entry of the source. Where no end group is shown, it is not given here.

Tests used:
[1] = system: regulatory T lymphocytes (CD25+); experiment: Inhibition of suppressant action of regulatory T lymphocytes (CD25+) on splenocyte proliferation; assay type: cell-based, Balb-c mice; conditions: for dose dependence of inhibition of regulatory T lymphocyte action: 50 μM and double dilutions
Method: 1. OBTAINMENT OF TOTAL SPLENOCYTES: To obtain splenocytes from 6-week old, female Balb-c mice, 4 animals were sacrificed, and after extracting the spleen, they were transferred to a clean medium for their dispersion with crystals, the homogenate was filtered (70-micron filter) and transferred to 50-ml tubes, for their subsequent washing and centrifugation. The cells obtained were incubated for 1 minute in lysis buffer, for the elimination of erythrocytes and they were subsequently washed with clean culture medium. Finally, the cells obtained were resuspended in 1 ml of AUTOMACS medium and they were counted. 2. PURIFICATION OF CD25+ LYMPHOCYTES: the purification of CD25+ lymphocytes was performed by the use of magnetic columns labelling with CD25PE and after incubation, anti-PE magnetic microspheres (Phycoerythrin) were added. After incubation, washing and filtration (30-micron filter) the samples were passed through a magnetic column, obtaining the eluate containing the CD25− population by gravity. Once the column is extracted from the magnetic field it is washed under pressure, obtaining the CD25+ cells. 3. SUPPRESSANT ACTIVITY ASSAY: To verify the regulating nature of the CD25+ population, a total of 100,000 splenocytes was seeded per well on a U-bottomed 96-well plate, in a volume of 200 μl per well and anti-CD3 antibody ([…]) alone or opposing CD25+ or CD25−, placing 25,000 cells per well (CD25+) or 50,000 cells per well (CD25−), performing double dilutions of the concentration of these cells. 4. ASSAY FOR THE INHIBITION OF SUPPRESSANT ACTION BY PEPTIDES: On the U-bottomed 96-well plate, with 200 μl vol/well, 100,000 splenocytes were seeded per well and anti-CD3 antibody (0.5 μl/well) plus 25,000 CD25+ lymphocytes per well. Peptides were added to these mixtures (3 columns/peptide, 50 MicroM in the 1st row and double dilution in the following three rows). 3 peptides were assayed: P17(1-11) SEQ ID NO: 3, P17(1-11)am SEQ ID NO: 4 and AcP17(1-11)am SEQ ID NO: 5. Both this assay and that of the suppressant activity were incubated at 37° C. for 48 h, tritium labelled thymidine was added at 0.5 μCi/well and it is harvested after 8 h, subsequently counting the CPM emitted by the cells from each well. 5. VERIFICATION OF THE EFFECTIVE SEPARATION OF THE Treg: Labelling with fluorescent anti-CD4 and anti-CD25 antibodies and analysis by flow cytometry (89% of the population magnetically separated is DC4+CD25+).

[2] = system: MC38, LLC, CT26 and RENCA tumour lines; experiment: NK cell cytotoxicity, 51Cr release assay; assay type: cell-based, mouse; conditions: effector cells with/without p17 for 6 days; 4.5 h 51Cr release
Method: They were performed from spleen cells from RAG^−/− mice, without T and B lymphocytes. In some cases, the total splenocytes was cultured on 6-well plates at 4×10^6 cells per ml of RPMI medium enriched with 10% SBF, L-glutamine, antibiotics, non-essential amino acids, β-mercaptoethanol and human recombinant interleukin-2 (Chiron) at 600 IU/ml. In half the wells, peptide p17 was added at a concentration of 150 μg/ml. After 48 hours, the medium was removed and the wells were washed with RPMI medium to discard the non-adherent cells. Next, fresh medium was added with/without peptide. On day +5, the medium was again changed, this time replacing all the cells and peptide p17 in the corresponding cultures. The cells counts with trypan blue were performed on days +5 and +6 of this culture. In other cases, NK cells from mouse splenocytes were purified by an immunomagnetic selection using the MiniMACS system, anti-DX5 beads and MS columns (Miltenyi Biotech) according to the manufacturer's instructions. […]
The cytotoxicity of NK cells was verified by standard 4.5 h ^51Cr release assays. […] Finally, the release of ^51Cr due to lysis by NK cells was measured after 4.5 h in a TopCount Scintillation counter (Perkin Elmer). The cytotoxicity was measured as a percentage of Cr released with respect to the total acquired by the cells. […]

CT26 cells = experiment: Tumour growth of subcutaneous CT26 in AH1-immunized mice treated with peptides; assay type: in vivo, balb-c mice; conditions: 50 μg/mouse/48 h i.p. between days 6 and 10, s.c. CT26 on day 0, AH1 immunization 10 days before
Method: GROUPS: 4 groups of 7 female balb-c mice, of 6 weeks old/group.
AH1+FIA s.c.+p144 (50 μg i.p./dose/mouse) AH1+FIA s.c.+p17(1-11) (50 μg i.p./dose/mouse) DESIGN: AH1+FIA: […]; Peptides: from day −6 on alternate days until day 10: Tumour model volume: Each 3 days from day 10 to day 41. Challenge on day 0 with CT26 (500000 cells/mouse s.c. in the flank).
REDUCTION IN THE MEAN TUMOUR VOLUME BY GROUPS TREATED WITH PEPTIDES: The effect of peptides p144 and p17(1-11)Am was studied in a tumour progression model. In this model, mice were immunized with 50 μg of AH1 10 days before the administration of 5×10^5 CT26 cells. In order to verify the effect of blocking the TGF-β1 on the protection against CT tumour cells, another two groups of mice were treated on alternate days by intraperitoneal route between days 6 and 10 (50 μg/mouse/48 h) with peptides p144 and p17(1-11)Am. […] This protection reached 100% of the animals in the case of p144 (FIG. 16).

Substance	inhibition of the suppressant effect of regulatory T lymphocytes ([1]; peptide 50 μM)	dose dependence of inhibition of regulatory T lymphocyte action [1]	inhibition of the suppressant effect of regulatory T lymphocytes ([1]; peptide 25 μM) [%]	cytotoxic activity of NK cells against tumour lines [2]	inhibition of the suppressant effect of regulatory T lymphocytes ([1]; peptide 50 μM, listed as P17(1-1)am)	tumour growth (CT26 cells)	tumour growth (CT26 cells; listed as p17(1-11)Am)
p17(1-11): fragment of peptide p17, amino acids 1 to 11, SEQ ID NO: 3 (KRIWFIPRSSW)	20%						
Acp17(1-11)am: p17(1-11)am which further has position 1 (lysine) acetylated, SEQ ID NO: 5 (Ac-KRIWFIPRSSW-NH2)	totally inhibiting	dose-dependent	148				
KRIWFIPRSSWYERA [p17]				improves the cytotoxic activity; also recorded: increases the cytotoxicity			
p17(1-11)am: amino acids 1 to 11 of peptide p17, position 11 (tryptophan) amidated, SEQ ID NO: 4 (KRIWFIPRSSW-NH2)	128%	dose-dependent			totally inhibiting	delay tumour growth	protection against tumour growth
